Marks after values point to notes of the source that are not given here.
Legend:
Dog Serum Bile Acids [1] = settings: dogs; previous experiments (2); cited from earlier work
Dog Serum Bile Acids [2] = test: Duration of action of LUM001 on dog serum bile acids, Method 2: one meal, extended interval between dosing and feeding; type: in vivo, beagle dogs; settings: feeding time 2 hr

In the case of `CCCCC1(CCCC)CS(=O)(=O)c2ccc(N(C)C)cc2[C@@H](c2ccc(OCc3ccc(C[N+]45CCN(CC4)CC5)cc3)cc2)[C@H]1O` [LUM001], the “Time LUM001 remains active” value (Dog Serum Bile Acids [1]) is listed as “more than 4.5 hours”, the “Serum Bile Acid, Mean” value (Dog Serum Bile Acids [2]; dogs n = 6, 0.2 mg/kg p.o., dosing time 0 hr, time 3 hr) is listed as 4.1* μg/ml and the “Serum Bile Acid, Mean” value (Dog Serum Bile Acids [2]; dogs n = 6, 0.2 mg/kg p.o., dosing time 0 hr, time 4 hr) is listed as 6.5* μg/ml. For the same molecule, the “Serum Bile Acid, Mean” value (Dog Serum Bile Acids [2]; dogs n = 9, 0.05 mg/kg p.o., dosing time 0 hr, time 0 hr) was 1.7 µg/mL, the “Serum Bile Acid, Mean” value (Dog Serum Bile Acids [2]; dogs n = 9, 0.05 mg/kg p.o., dosing time 0 hr, time 2 hr) was 2.0 µg/mL and the “Serum Bile Acid, Mean” value (Dog Serum Bile Acids [2]; dogs n = 9, 0.05 mg/kg p.o., dosing time 0 hr, time 3 hr) was 9.0* μg/ml. The “Serum Bile Acid, Mean” value (Dog Serum Bile Acids [2]; dogs n = 9, 0.05 mg/kg p.o., dosing time 0 hr, time 4 hr) was 10.8 µg/mL, the “Serum Bile Acid, Mean” value (Dog Serum Bile Acids [2]; dogs n = 9, 0.05 mg/kg p.o., dosing time 0 hr, time 5 hr) was 10.6 µg/mL and the “Serum Bile Acid, Mean” value (Dog Serum Bile Acids [2]; dogs n = 9, 0.05 mg/kg p.o., dosing time 0.5 hr, time 0.5 hr) was 1.8 µg/mL. For the same molecule, the “Serum Bile Acid, Mean” value (Dog Serum Bile Acids [2]; dogs n = 9, 0.05 mg/kg p.o., dosing time 0.5 hr, time 2 hr) was 1.7 µg/mL, the “Serum Bile Acid, Mean” value (Dog Serum Bile Acids [2]; dogs n = 9, 0.05 mg/kg p.o., dosing time 0.5 hr, time 2.5 hr) was 2.5 µg/mL and the “Serum Bile Acid, Mean” value (Dog Serum Bile Acids [2]; dogs n = 9, 0.05 mg/kg p.o., dosing time 0.5 hr, time 3 hr) was 9.7 µg/mL. The “Serum Bile Acid, Mean” value (Dog Serum Bile Acids [2]; dogs n = 9, 0.05 mg/kg p.o., dosing time 0.5 hr, time 4 hr) was 12.4 µg/mL and the “Serum Bile Acid, Mean” value (Dog Serum Bile Acids [2]; dogs n = 9, 0.05 mg/kg p.o., dosing time 0.5 hr, time 5 hr) was 11.6 µg/mL.
